Experimental data as given in publication PMC9133015 (Nature Communications, 2022).
Where “and” joins values, the source holds several entries; their conditions need not be identical. Equal entries are not always repeated. Where two headings read alike, the source gives them in different places.

How the values were obtained:
DYRK2 = biological target: T1, DYRK2 (Homo sapiens, UniProt Q92630); test: DYRKs kinase activity assay (33P-ATP, DYRKtide substrate): DYRK2; assay type: biochemical
T1 construct: purchased Reaction Biology Corporation (assay service)
T1 sequence (Q92630 1-601): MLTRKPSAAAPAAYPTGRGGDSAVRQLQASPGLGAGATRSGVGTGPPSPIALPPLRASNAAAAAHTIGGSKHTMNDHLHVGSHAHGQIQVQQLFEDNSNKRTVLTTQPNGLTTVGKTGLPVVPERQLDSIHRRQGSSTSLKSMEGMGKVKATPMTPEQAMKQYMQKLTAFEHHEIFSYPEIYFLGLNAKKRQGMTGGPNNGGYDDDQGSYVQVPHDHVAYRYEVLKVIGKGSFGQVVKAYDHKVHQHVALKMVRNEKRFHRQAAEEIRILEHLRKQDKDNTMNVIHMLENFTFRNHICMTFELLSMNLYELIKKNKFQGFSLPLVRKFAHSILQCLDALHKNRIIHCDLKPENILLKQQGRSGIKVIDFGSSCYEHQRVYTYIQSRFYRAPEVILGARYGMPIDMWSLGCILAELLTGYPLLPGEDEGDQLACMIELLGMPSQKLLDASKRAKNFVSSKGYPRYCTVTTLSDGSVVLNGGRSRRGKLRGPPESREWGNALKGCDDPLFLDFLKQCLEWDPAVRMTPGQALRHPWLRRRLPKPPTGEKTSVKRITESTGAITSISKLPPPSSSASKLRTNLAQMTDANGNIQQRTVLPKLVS

DYRK2 protein = biological target: T2, DYRK2 protein (Homo sapiens, UniProt Q92630); test: Microscale thermophoresis binding assay; conditions: for Fnorm: triplicates
T2 construct: 6xHis (N, cleaved yes); TEV protease cleavage site (N, cleaved yes); made in house; host or cells: E. coli BL21 (DE3)
T2 sequence (Q92630 72-479 isoform Q92630-2): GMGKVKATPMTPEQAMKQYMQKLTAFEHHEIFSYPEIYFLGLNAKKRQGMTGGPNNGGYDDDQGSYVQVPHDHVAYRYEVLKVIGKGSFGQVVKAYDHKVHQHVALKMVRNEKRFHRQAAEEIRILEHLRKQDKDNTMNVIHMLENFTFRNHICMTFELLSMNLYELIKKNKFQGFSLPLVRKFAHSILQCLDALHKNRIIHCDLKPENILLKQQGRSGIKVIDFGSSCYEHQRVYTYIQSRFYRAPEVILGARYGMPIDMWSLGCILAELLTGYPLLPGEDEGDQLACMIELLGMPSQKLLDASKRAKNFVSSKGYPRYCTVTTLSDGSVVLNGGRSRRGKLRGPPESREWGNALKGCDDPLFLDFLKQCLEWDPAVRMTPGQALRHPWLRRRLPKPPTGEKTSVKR

inhibition at 0.00152416 µM (DYRK2; 0.00152416 µM, duplicates, read-out: % Inhibition DYRK2): 3.73%
inhibition at 0.0137174 µM (DYRK2; 0.0137174 µM, duplicates, read-out: % Inhibition DYRK2): 8.64%
inhibition at 0.0411523 µM (DYRK2; 0.0411523 µM, duplicates, read-out: % Inhibition DYRK2): 21.1%
inhibition at 0.123457 µM (DYRK2; 0.123457 µM, duplicates, read-out: % Inhibition DYRK2): 34.4%
inhibition at 0.37037 µM (DYRK2; 0.37037 µM, duplicates, read-out: % Inhibition DYRK2): 57.9%
inhibition at 1.11111 µM (DYRK2; 1.11111 µM, duplicates, read-out: % Inhibition DYRK2): 76.8%
inhibition at 3.33333 µM (DYRK2; 3.33333 µM, duplicates, read-out: % Inhibition DYRK2): 87.6%
inhibition at 10 µM (DYRK2; 10 µM, duplicates, read-out: % Inhibition DYRK2): 82.5%
% Inhibition (DYRK2; DYRK2 kinase, Conc. 0.000508053 µM, duplicate values): 5.75% and 2.04%
% Inhibition (DYRK2; DYRK2 kinase, Conc. 0.00152416 µM, duplicate values): 4.49%
inhibition at 0.00152416 µM (DYRK2; DYRK2 kinase, Conc. 0.00152416 µM, duplicate values, read-out: % Inhibition): 3.73%
% Inhibition (DYRK2; DYRK2 kinase, Conc. 0.00457247 µM, duplicate values): 3.40% and 7.56%
% Inhibition (DYRK2; DYRK2 kinase, Conc. 0.0137174 µM, duplicate values): 7.85%
inhibition at 0.0137174 µM (DYRK2; DYRK2 kinase, Conc. 0.0137174 µM, duplicate values, read-out: % Inhibition): 8.64%
% Inhibition (DYRK2; DYRK2 kinase, Conc. 0.0411523 µM, duplicate values): 22.26%
inhibition at 0.0411523 µM (DYRK2; DYRK2 kinase, Conc. 0.0411523 µM, duplicate values, read-out: % Inhibition): 21.1%
% Inhibition (DYRK2; DYRK2 kinase, Conc. 0.123457 µM, duplicate values): 33.57%
inhibition at 0.123457 µM (DYRK2; DYRK2 kinase, Conc. 0.123457 µM, duplicate values, read-out: % Inhibition): 34.4%
% Inhibition (DYRK2; DYRK2 kinase, Conc. 0.37037 µM, duplicate values): 58.41%
inhibition at 0.37037 µM (DYRK2; DYRK2 kinase, Conc. 0.37037 µM, duplicate values, read-out: % Inhibition): 57.9%
% Inhibition (DYRK2; DYRK2 kinase, Conc. 1.11111 µM, duplicate values): 75.65%
inhibition at 1.11111 µM (DYRK2; DYRK2 kinase, Conc. 1.11111 µM, duplicate values, read-out: % Inhibition): 76.8%
% Inhibition (DYRK2; DYRK2 kinase, Conc. 3.33333 µM, duplicate values): 88.99%
inhibition at 3.33333 µM (DYRK2; DYRK2 kinase, Conc. 3.33333 µM, duplicate values, read-out: % Inhibition): 87.6%
% Inhibition (DYRK2; DYRK2 kinase, Conc. 10 µM, duplicate values): 86.13%
inhibition at 10 µM (DYRK2; DYRK2 kinase, Conc. 10 µM, duplicate values, read-out: % Inhibition): 82.5%
IC50 (DYRK2; Supplementary Table 1, read-out: IC50 (μM), DYRK2 kinase): 0.263 µM
IC50 (DYRK2; read-out: DYRK2 IC50): 0.263 µM
Kd (DYRK2 protein): 4210 nM
Fnorm (DYRK2 protein; Ligand Concentration 1.52588e-9 M): 954.38 ‰ and 953.199 ‰ and 953.894 ‰
Fnorm (DYRK2 protein; Ligand Concentration 3.05176e-9 M): 952.707 ‰ and 951.359 ‰ and 952.777 ‰
Fnorm (DYRK2 protein; Ligand Concentration 6.10352e-9 M): 952.691 ‰ and 953.017 ‰ and 952.481 ‰
Fnorm (DYRK2 protein; Ligand Concentration 1.2207e-8 M): 952.212 ‰ and 953.635 ‰ and 952.43 ‰
Fnorm (DYRK2 protein; Ligand Concentration 2.44141e-8 M): 953.58 ‰ and 951.571 ‰ and 954.168 ‰
Fnorm (DYRK2 protein; Ligand Concentration 4.88281e-8 M): 951.243 ‰ and 951.794 ‰ and 952.294 ‰
Fnorm (DYRK2 protein; Ligand Concentration 9.76563e-8 M): 951.852 ‰ and 953.231 ‰ and 951.931 ‰
Fnorm (DYRK2 protein; Ligand Concentration 1.95313e-7 M): 949.537 ‰ and 959.016 ‰ and 950.589 ‰
Fnorm (DYRK2 protein; Ligand Concentration 3.90625e-7 M): 952.367 ‰ and 950.104 ‰ and 950.78 ‰
Fnorm (DYRK2 protein; Ligand Concentration 7.8125e-7 M): 949.243 ‰ and 949.342 ‰ and 952.357 ‰
Fnorm (DYRK2 protein; Ligand Concentration 1.5625e-6 M): 951.973 ‰ and 948.051 ‰ and 949.742 ‰
Fnorm (DYRK2 protein; Ligand Concentration 3.125e-6 M): 946.14 ‰ and 947.629 ‰ and 949.334 ‰
Fnorm (DYRK2 protein; Ligand Concentration 6.25e-6 M): 948.962 ‰ and 949.021 ‰ and 944.76 ‰
Fnorm (DYRK2 protein; Ligand Concentration 1.25e-5 M): 945.246 ‰ and 944.859 ‰ and 943.424 ‰
Fnorm (DYRK2 protein; Ligand Concentration 2.5e-5 M): 944.179 ‰ and 942.478 ‰ and 945.127 ‰
Fnorm (DYRK2 protein; Ligand Concentration 5e-5 M): 942.507 ‰ and 940.515 ‰ and 942.733 ‰
Structure (SMILES): CC(C)N1CCN(Cc2ccc(Nc3ncc(F)c(-c4ccc5ncsc5c4)n3)nc2)CC1 [Compound 12]
